In one data set the target is T1, Aβ40 (Homo sapiens, UniProt P05067).
T1 construct: from tissue; host or cells: hemi-brain homogenate of TgCRND8 transgenic mice
The experiment in a line: Cerebral Aβ content: brain Aβ40 (ELISA kit). It counts as in vivo, mouse. Particulars: TgCRND8 mice with pre-existing disease; 28 day treatment from 5 months of age. How it is done:
(§1) Plasma and Cerebral Aβ Content. Hemi-brain samples were homogenized in a buffered sucrose solution, followed by either 0.4% diethylamine/100 mM NaCl for soluble Aβ levels or cold formic acid for the isolation of total Aβ. After neutralization, the samples were diluted and analyzed for Aβ40 and Aβ42 using commercially available kits (BIOSOURCE International). Each hemisphere was analyzed in triplicate and the mean values±SEM reported. Western blot analyses were performed on all fractions using urea gels for Aβ species analyses. Aβ was detected using 6E10 (BIOSOURCE International) and Enhanced Chemiluminenscence (Amersham).
(§2) Cerebral Aβ Content. Hemi-brain samples were homogenized in a buffered sucrose solution, followed by either 0.4% diethylamine/100 mM NaCl for soluble Aβ levels or cold formic acid for the isolation of total Aβ [22]. After neutralization the samples were diluted and analyzed for Aβ40 and Aβ42 using commercially available kits (BIOSOURCE International). Each hemisphere was analyzed in triplicate with the mean±SEM reported. Plasma was diluted and run directly on the ELISA.
(In general: ELISA stands for enzyme-linked immunosorbent assay.)

Data set [1] relates to TgCRND8 mice. The experiment in a line: Gliosis quantitation (GFAP astrocytes, CD68 microglia). It counts as in vivo, mouse. How it is done:
Gliosis Quantitation. Five randomly selected, evenly spaced, sagittal sections were collected from paraformaldehyde-fixed and frozen hemispheres of treated and control mice. Sections were immunolabelled for astrocytes with anti-rat GFAP IgG2a (Dako; diluted 1:50) and for microglia with anti-rat CD68 IgG2b (Dako; 1:50). Digital images were captured using a Coolsnap digital camera (Photometrics, Tuscon, Ariz.) mounted to a Zeiss, Axioscope 2 Plus microscope. Images were analysed using Openlab 3.08 imaging software (Improvision, Lexington Mass.).

The next data set has as its system neurons. Particulars: cited from earlier work.
In data set [2] the target is T2, Aβ42 (Homo sapiens, UniProt P05067). The experiment in a line: Cerebral Aβ content: brain Aβ42 (ELISA kit). Particulars: TgCRND8 mice with pre-existing disease; 28 day treatment from 5 months of age. Also noted: from tissue; host or cells: hemi-brain homogenate of TgCRND8 transgenic mice. It counts as in vivo, mouse. On the procedure: as §1, §2
Target sequence in this assay (P05067 672-713 limits assumed): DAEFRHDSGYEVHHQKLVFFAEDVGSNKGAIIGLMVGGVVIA
Data set [3] deals with TgCRND8 mice. The experiment in a line: Cerebral amyloid plaque burden (anti-Aβ immunostaining, image analysis). It counts as in vivo, mouse. How it is done: Cerebral amyloid burden. Brains were removed and one hemisphere was fixed in 4% paraformaldehyde and embedded in paraffin wax in the mid sagittal plane. To generate sets of systematic uniform random sections, 5 μm serial sections were collected across the entire hemisphere. Sets of sections at 50 μm intervals were used for analyses (10-14 sections/set). Plaques were identified after antigen retrieval with formic acid, and incubation with primary anti-Aβ antibody (Dako M-0872), followed by secondary antibody (Dako StreptABCcomplex/horseradish kit). End products were visualized with DAB and were counter-stained with luxol fast blue. Amyloid plaque burden was assessed with Leco IA-3001 image analysis software interfaced with Leica microscope and Hitachi KP-M1U CCD video camera. Openlab imaging software (Improvision, Lexington, Mass.) was then used to convert micrographs to binary images for plaque number and plaque area determinations. Vascular amyloid burden was defined as amyloid originating from or surrounding blood vessels and was analysed similarly.

The subject of data set [4] is TgCRND8 mice. The experiment in a line: Survival census (Kaplan-Meier). It counts as in vivo, mouse. Particulars: compared to untreated TgCRND8 mice. On the procedure: Survival Census: The probability of survival was assessed by the Kaplan-Meier technique, computing the probability of survival at every occurrence of death, thus making it suitable for small sample sizes. For the analyses of survival, 35 mice were used for each treatment group. The Tarone-Ware test was used to assess effects of treatments.
Survival Census: The probability of survival was assessed by the Kaplan-Meier technique computing the probability of survival at every occurrence of death, thus making it suitable for small sample sizes. For the analyses of survival, 30 mice were used for each treatment group. The Tarone-Ware test was used to assess effects of treatments.

For data set [5], the target named is T2, Aβ42. The experiment in a line: Plasma Aβ42 levels. The note with it: TgCRND8 mice following 28 days of therapy at five months of age. Also noted: from tissue; host or cells: plasma of TgCRND8 transgenic mice. It counts as in vivo, mouse. How it is done:
as §1, §2
Target sequence in this assay (P05067 672-713): as the sequence (P05067 672-713 limits assumed) above

Data set [6] relates to TgCRND8 mice. The experiment in a line: Morris Water Maze spatial reference memory test. It counts as in vivo, mouse. How it is done:
Behavioural tests: Morris Water Maze testing was performed as previously described. After non-spatial pre-training, mice underwent place discrimination training for 5 days with 4-trials per day, followed by a cued visible platform to rule out general motivational, learning deficits and motor problems, and a probe trial to evaluate memory. […] Open field test for motor activity was preformed as described previously. Duration of walking, pausing and grooming were analyzed as indices of spontaneous locomotor activity. Sensorimotor function was examined with an Economex™ accelerating rotarod (Columbus Instruments, Columbus, Ohio), as described elsewhere. The rod was set to accelerate at a rate of 0.2 r.p.m./s, from an initial, constant speed of 5 r.p.m. Latency to fall was recorded in four daily trials, conducted at 30 min intervals. All mice were trained for seven days before testing. The test day performance score for each animal was obtained by summing its latency to fall over the four trials
Behavioural tests: Behavioural analyses were performed using the Morris Water Maze test (13, 14). After pre-spatial training, mice underwent place discrimination training for 5 days with 4 trials per day, followed by a cued visible platform to rule out general motivational, learning deficits and motor problems. […] Open field test for motor activity was performed as described previously. Duration of walking, pausing, rearing and grooming were analyzed as indices of spontaneous locomotor activity.

The nature of the next data set: Pilot in vivo studies. Particulars: data not shown.
The conditions of data set [7]: 6-18 grams/day/adult or 86-257 mg/Kg/day; reference [21]; cited from earlier work.
In the next data set the test system is Aβ. Particulars: reference [11]; cited from earlier work.
The mark [8] stands for this setting: TgCRND8 mice, 4-month Prophylactic (oral from 6 weeks to 4 months of age).
Setting [9] is: TgCRND8 mice, 6-month Prophylactic (oral from 6 weeks to 6 months of age).
Where [10] appears, read: TgCRND8 mice, oral treatment for 28 days (1 month) from 5 months of age, analysed at 6 months.
The mark [11] stands for this setting: six month old TgCRND8 mice, 28 days of oral treatment beginning at five months of age.

“Also recorded” adds a separate entry of the source.

T1 sequence (P05067 672-711): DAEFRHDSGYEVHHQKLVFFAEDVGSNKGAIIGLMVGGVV

Turning to “1,2,3,4,5/6-(epi-)cyclohexanehexol [epi-cyclohexanehexol]”, the “effect on brain Aβ40 levels” value at Aβ40 is listed as “no significant impact”. Also, in the data set with TgCRND8 mice [1] (TgCRND8 mice), the “percent brain area covered with microgliosis” value is given as “decreased the percent brain area covered with microgliosis”. In addition, in the data set with TgCRND8 mice [1] (TgCRND8 mice at six months of age), the “astrogliosis / gliosis, anti-GFAP immunostaining” value is “decrease in astrogliosis”. Moreover, the “percent brain area covered in astrogliosis” value with TgCRND8 mice [1] (TgCRND8 mice, 4- and 6-months of age) is “decreased the percent brain area covered in astrogliosis at both 4- and 6-months of age”. Moreover, the “activity against synthetic Aβ42 neurotoxicity” value in the data set on neurons is listed as “protects neurons from synthetic Aβ42 cytotoxicity”. In addition, the “effect on brain Aβ42 levels” value at Aβ42 [2] is “no significant impact”. Besides, in the data set on TgCRND8 mice [3] (TgCRND8 mice at six months of age, hippocampus and cerebral cortex), the “amyloid (plaque) burden, immunostaining” value is “modest effect on amyloid burden”. For the same molecule, the “plaque burden (percent area of the brain covered with plaques, plaque number)” value in the data set with TgCRND8 mice [3] (TgCRND8 mice with pre-existing disease, one month treatment from 5 months of age) is on record as “no significant impact”. In the data set with TgCRND8 mice [3] (setting [8]), the “Mean Plaque Size” value came to 95 ± 43 μm^2 and the “Total Plaque Area” value was 65042 ± 5199 μm^2. Besides, in the data set with TgCRND8 mice [3] (setting [9]), the “Mean Plaque Size” value worked out at 370 ± 9 μm^2 and the “Total Plaque Area” value came to 380456 ± 13498 μm^2. In the data set on TgCRND8 mice [3] (setting [10]), the “Mean Plaque Size” value was determined as 346 ± 6 μm^2 and the “Total Plaque Area” value is given as 459706 ± 49966 μm^2. Further, in the data set on TgCRND8 mice [3] (TgCRND8 mice, oral treatment for 28 days from 5 months of age, analysed at 6 months), the “Total Plaque Count” value came out at 1342 ± 114. Moreover, in the data set on TgCRND8 mice [4], the “Kaplan Meier cumulative survival” value is recorded as “did not significantly improve survival”. Moreover, at Aβ42 [5], the “Plasma Aβ42 levels” value is 1079 ± 79 pg/mL. The “Non-Tg littermate behaviour under treatment” value with TgCRND8 mice [6] (non-Tg littermates, Morris Water Maze) is given as “not affected”. For the same molecule, the “cognition compared to non-Tg mice” value in the data set with TgCRND8 mice [6] (prophylactic treatment, four months of age) was “significantly different from treated and untreated non-Tg mice”. The “cognition compared to non-Tg littermates” value in the data set with TgCRND8 mice [6] (prophylactic treatment, six months of age) is recorded as “approached that of non-Tg littermates”. In the data set on TgCRND8 mice [6] (setting [11]), the “spatial reference memory performance compared to non-Tg littermates” value is on record as “significantly poorer than the performance of their non-Tg littermates; also recorded: remained impaired with respect to non-Tg littermates” and the “spatial reference memory performance compared to untreated TgCRND8 littermates” value is on record as “not significantly different from that of untreated TgCRND8 littermates”.

For `OC1C(O)C(O)C(O)C(O)C1O` (centres unmarked) [chiro-inositol, chiro-cyclohexanehexol, reference compound], in the data set with neurons, the “activity against synthetic Aβ42 neurotoxicity” value is “inactive”.

Regarding `O[C@H]1[C@H](O)[C@@H](O)[C@H](O)[C@@H](O)[C@H]1O` [myo-cyclohexanehexol, 1,2,3,5/4,6-(myo-)cyclohexanehexol], the “benefit in pilot in vivo studies” value in “Pilot in vivo studies” was “no significant benefit”. The toxicity result in [7] is recorded as “no toxicity in humans or animals”. Besides, the “effectiveness in prior in vitro studies” value in the data set on Aβ is recorded as “only weakly effective”.

The record behind these values is patent US20070197453A1, “Compositions and methods for treatment of disorders of protein aggregation” (priority 2006, published 2007).
